Data on three molecules can be found in US8003632B2, “Cholinesterase inhibitors for treating inflammation” (priority 2004, dated 2011).

Where a name gives a salt, the structure may show the parent alone. Read-outs that look alike come from different tables or passages of the source.

Assay [1] has as its system murine model of lethal endotoxemia. It counts as in vivo, mice. The note with it: for mice survived: 14 days after endotoxin, vehicle none survived.
Assay [2] deals with murine CLP model of sepsis. It counts as in vivo, mice.
Assay [3] concerns TNF-α. Description: Serum TNF-α (ELISA) in septic mice after cecal ligation and puncture. It counts as in vivo, BALB/c mice. The note with it: for decrease of serum level TNF-α compared to vehicle control: blood 6 h after treatment. The procedure:
(§1) Cecal Ligation and Puncture (CLP) was performed as described in Fink and Heard, J. of Surg. Res. 49:186-196 (1990), Wichman et al., Crit. Care Med. 26:2078-2086 (1998) and Remick et al., Shock 4:89-95 (1995). Briefly, BALB/c mice were anesthetized with 100 mg/kg ketamine (Fort Dodge, Fort Dodge, Iowa) and 10 mg/kg of xylazine (Bohringer Ingelheim, St. Joseph, Mo.) intramuscularly. A midline incision was performed, and the cecum was isolated. A 6-0 prolene suture ligature was placed at a level 5.0 mm from the cecal tip away from the ileocecal valve.
The ligated cecal stump was then punctured once with a 22-gauge needle, and 2mm stool extruded. The cecum was then placed back into its normal intra-abdominal position. The abdomen was then closed with a running suture of 6-0 prolene in two layers, peritoneum and fascia separately to prevent leakage of fluid. All animals were resuscitated with a normal saline solution administered sub-cutaneously at 20 ml/kg of body weight. Each mouse received a subcutaneous injection of imipenem (0.5 mg/mouse) (Primaxin, Merck & Co., Inc., West Point, Pa.) 30 minutes after the surgery. Animals were then allowed to recuperate.
Twenty-four hours after surgery, mice were intraperitoneally administered either 0.01 mg/kg or 0.1 mg/kg Galantamine Hydrobromide (CalBioChem, San Diego, Calif.) or vehicle control (saline). Galantamine was prepared in saline to a final concentration of 10 mg/ml. Mice were euthanized 6 hours after treatment with Galantamine or vehicle control (30 hours after surgery) and blood was collected by cardiac puncture for TNF-α measurement. TNF-α was measured by ELISA (mouse ELISA kit from R&D Systems Inc., Minneapolis, Minn.).
Cecal ligation and puncture were performed as described above. Randomly selected mice were treated intraperitoneally with vehicle (saline, 200 ul) or tacrine (2.5 μg/kg or 0.25 μg/kg) twice daily for 3 days, starting 24 hours after surgery. Mice were monitored for survival twice daily for three weeks. […] TNF was measured by ELISA as discussed above. HMGB1 was measured in sera by Western blot as discussed above.

Assay [4] has as its system HMGB1. Kind of assay: Serum HMGB1 (western blot) in septic mice after cecal ligation and puncture. It counts as in vivo. As to the method:
as §1
The ligated cecal stump was then punctured once with a 22-gauge needle, and 2mm stool extruded. The cecum was then placed back into its normal intra-abdominal position. The abdomen was then closed with a running suture of 6-0 prolene in two layers, peritoneum and fascia separately to prevent leakage of fluid. […]
Cecal Ligation and Puncture (CLP) was performed as described above in Example 1. […] HMGB1 was measured by western blot using anti-HMG1 polyclonal antisera (U.S. Pat. No. 6,303,321) and standard methods. Band densities were measured using a Bio-Rad Imaging densitometer. […]
Cecal ligation and puncture were performed as described above. […] Mice were monitored for survival twice daily for three weeks. […] TNF was measured by ELISA as discussed above. HMGB1 was measured in sera by Western blot as discussed above.

Assay [5] concerns TNF. Description: Serum TNF (ELISA) in endotoxemic mice. It counts as in vivo, BALB/c mice. As to the method: Male BALB/c mice were injected intraperitoneally with 6 mg/kg endotoxin (lipopolysaccharide, E. coli 0111:B4, Sigma, St. Louis, Mo.; 10 mg/ml in pyrogen-free saline), which had been sonicated for 30 min. Galantamine (CalBioChem, San Diego, Calif.) at doses of 0.1, 1, 2 or 4 mg/kg or vehicle control were injected intraperitoneally one hour before endotoxin administration in anesthetized animals. One and half hours after endotoxin exposure, blood was harvested for TNF measurement.
Blood was centrifuged at 5,000 rpm (1,500×g) for 15 min and the supernatants were collected for TNF determination. Serum and supernatants were used for TNF protein analysis by ELISA (R&D Systems Inc., Minneapolis, Minn.) according to the manufacturer's instructions.
A general note: In an ELISA, binding on a coated surface is turned into a signal by an enzyme label.

The subject of assay [6] is TNF-α. Description: Serum TNF-α in endotoxemic rats after intracerebroventricular administration. It counts as in vivo. The note with it: ICV 1 hour before endotoxemia, doses tested 1-1000 ng/kg, dose of the result not stated. As to the method: Endotoxemia was induced in rats via intraperitoneal (IP) injection of endotoxin (lipopolysaccharide, LPS; E. coli 0111:B4, Sigma; 10 mg/ml in PBS) (10-30 mg/kg, IP). Rats were anesthetized with ketamine (10%) in xylazine and placed in a stereotatic head frame (Stoelting Co.). The incisor bar was adjusted until the plane defined by the lambda and bregma was parallel to the base plate. The needle of a Hamilton syringe ([…]) was stereotactically guided into lateral ventricle (0.8 mm posterior to bregma, 1.5 mm lateral to midline, 3.5 mm below the dura). Galantamine at 1, 10, 100 and 1000 ng/kg was dissolved in sterile endotoxin-free saline and administered over 2 min. Vehicle control (saline) was also administered over 2 min. The location of intracerebroventricular (i.c.v.) injections was confirmed by histological examination of the brain after the experiment. TNF-α was measured as described above.

[7] abbreviates: 2.5 μg/kg i.p. 24 h after CLP, blood 6 h later.

Turning to `CN(C)C(=O)Oc1cccc([N+](C)(C)C)c1` [Neostigmine, Neostigmine methyl sulfate], in assay [1] (0.1 mg/kg i.p. 30 minutes before endotoxin), the mice survived result is “about 50%”.

As to `Nc1c2c(nc3ccccc13)CCCC2` [Tacrine], in assay [2] (mouse, in vivo, ip), the “effect on survival in mice with polymicrobial sepsis” value is on record as “significantly improved survival”, the mice survived entry is given as “all” and the “survival from lethal sepsis” value is 100%. In assay [3] (setting [7]), the “effect on serum TNF in septic mice” value is given as “significantly reduced”. In addition, the “effect on serum HMGB1 in septic mice” value in assay [4] (setting [7]) is listed as “significantly reduced”.

Regarding `COc1ccc2c3c1O[C@H]1C[C@@H](O)C=C[C@@]31CCN(C)C2` [Galantamine], the “survival from lethal sepsis” value in assay [2] (10 μg/kg i.p. twice daily, 3 days, from 24 h after CLP, monitored 3 weeks, vehicle 37%) is reported as 58%; in assay [2] (100 μg/kg i.p. twice daily, 3 days, from 24 h after CLP, monitored 3 weeks, vehicle 37%, p<0.05), 90%. Moreover, the mice survived is reported as 58% in assay [2] (Day 6, 10 ug/kg i.p. twice a day for 3 days from 24 h after CLP, vehicle 37%); 90% in assay [2] (Day 6, 100 ug/kg i.p. twice a day for 3 days from 24 h after CLP, vehicle 37%); “about 75%” in assay [1] (4 mg/kg i.p. six hours before endotoxin). Further, the “inhibition of serum TNF in endotoxemic mice” value was “nearly two-fold inhibition” in assay [5] (2 mg/kg i.p. 1 h before endotoxin) and “nearly three-fold inhibition” in assay [5] (4 mg/kg i.p. 1 h before endotoxin). Further, in assay [5] (1, 2 and 4 mg/kg i.p. 1 h before endotoxin, blood 1.5 h after endotoxin), the “effect on serum TNF in endotoxemic mice” value was “significantly inhibited serum TNF”. The results for the “decrease of serum level TNF-α compared to vehicle control” value in assay [6], in assay [3] (0.01 mg/kg i.p. 24 h after CLP) and in assay [3] (0.1 mg/kg i.p. 24 h after CLP) were “approximately 94%”, “approximately 50%” and around 80%, respectively. The increase in survival entry is reported as “about 15%” in assay [1] (day 14, 1 mg/kg i.p. 1 h before endotoxin) and around 25% in assay [1] (day 14, 2 mg/kg i.p. 1 h before endotoxin). Besides, the “increase in survival compared with vehicle control” value in assay [1] (day 14, 4 mg/kg i.p. 1 h before endotoxin) is on record as “about 90%”. Besides, in assay [4] (0.1 mg/kg i.p. 24 h after CLP, blood 6 h after treatment), the “decrease of serum level of HMGB1 compared to vehicle control” value is on record as “about 50%”.
